Assay results from article PMC11456799 (Molecular Therapy. Nucleic Acids, 2024).

Columns and labels:
in vitro = settings: human
SARS-CoV-2 WA-1/2020 = test: In vitro antiviral assay in HeLa-ACE2 cells; assay type: cell-based; settings: Severe acute respiratory syndrome coronavirus 2, HeLa-ACE2
[1] = system: SARS-CoV-2 Omicron XBB1.5; test: In vitro antiviral assay in HeLa-ACE2 cells; assay type: cell-based; settings: Severe acute respiratory syndrome coronavirus 2, HeLa-ACE2
HeLa-ACE2 cells = settings: human
SARS-CoV-2 Omicron BA.5 = test: In vitro antiviral assay in HeLa-ACE2 cells; assay type: cell-based; settings: Severe acute respiratory syndrome coronavirus 2, HeLa-ACE2
[2] = system: SARS-CoV-2 Delta (B.1.617.2); test: In vitro antiviral assay in HeLa-ACE2 cells; assay type: cell-based; settings: Severe acute respiratory syndrome coronavirus 2, HeLa-ACE2
SARS-CoV-2 Omicron JN.1 = test: In vitro antiviral assay in HeLa-ACE2 cells; assay type: cell-based; settings: Severe acute respiratory syndrome coronavirus 2, HeLa-ACE2
SARS-CoV-2 Omicron BA.1 = test: In vitro antiviral assay in HeLa-ACE2 cells; assay type: cell-based; settings: Severe acute respiratory syndrome coronavirus 2, HeLa-ACE2
WA-1/2020 SARS-CoV-2 = system: WA-1/2020 SARS-CoV-2; parameters: species or system K18-hACE2 mice; settings: mouse, in vivo, po, 150 mg/kg

| SMILES | CC50 (in vitro) [nM] | IC50 (SARS-CoV-2 WA-1/2020) [nM] | IC90 (SARS-CoV-2 WA-1/2020) [nM] | IC50 [1] [nM] | IC90 [1] [nM] | CC50 (HeLa-ACE2 cells) [nM] | IC50 (SARS-CoV-2 Omicron BA.5) [nM] | IC90 (SARS-CoV-2 Omicron BA.5) [nM] | IC50 [2] [nM] | IC90 [2] [nM] | IC50 (SARS-CoV-2 Omicron JN.1) [nM] | IC90 (SARS-CoV-2 Omicron JN.1) [nM] | IC50 (SARS-CoV-2 Omicron BA.1) [nM] | IC90 (SARS-CoV-2 Omicron BA.1) [nM] | lung virus titer lowering (positive control) (WA-1/2020 SARS-CoV-2) |
| --- | --- | --- | --- | --- | --- | --- | --- | --- | --- | --- | --- | --- | --- | --- | --- |
| CC(C)(C)[C@H](NC(=O)C(F)(F)F)C(=O)N1C[C@H]2[C@@H]([C@H]1C(=O)N[C@H](C#N)C[C@@H]1CCNC1=O)C2(C)C [Nirmatrelvir, nirmatrelvir] | > 5000 | 110 | 210 | 20 | 50 | > 5000 | 50 | 140 | 40 | 170 | 60 | 150 | 30 | 80 |  |
| CC(C)C(=O)OC[C@H]1O[C@@H](n2ccc(NO)nc2=O)[C@H](O)[C@@H]1O [MK-4482, molnupiravir] |  |  |  |  |  |  |  |  |  |  |  |  |  |  | approximately 3 log10 ffu/g tissue |
